These results are taken from PubChem BioAssay AID1259333 (Broad Institute, 2017).

Calls of active or inactive are those of the source. How the calls were made is not given here; tested in parental BL2 cells. A value given as a limit tells only on which side of the number the result lay.

The assay has as its system cytotoxicity, CellTiter-Glo ATP luminescence. Description: cell cytotoxicity, dose response, cytotoxicity control, CellTiter-Glo (AID 1259333). On the technique in general: ATP-based viability assays read luminescence as a measure of living cells.
`COc1ccc(CC2C(=O)NC(C)C(=O)N(C)C3Cc4ccc(cc4)Oc4cc(ccc4O)CC(C(=O)NC(C)C(=O)NC(C)C(=O)N2C)N(C)C3=O)cc1` (stereo not drawn): the AC50 was 10.8 µM.
Consider `CC(C)(C)OC(=O)CC(S(=O)(=O)c1ccccc1)S(=O)(=O)c1ccccc1`, for which the AC50 is 6.37 µM.
With `CC1OC(OC2C(O)CC(OC3C(O)CC(OC4CCC5(C)C(CCC6C5CCC5(C)C(C7=CC(=O)OC7)C(O)CC65O)C4)OC3C)OC2C)CC(O)C1O` (stereo not drawn), the AC50 was 0.625 µM.
Regarding `N#C[C@@H]1[C@H](c2ccc(C#CC3CCCCC3)cc2)[C@H](CO)N1C(=O)Nc1ccc(F)cc1`, the AC50 is > 20 µM (inactive).
As to `C[C@@H]1CN([C@H](C)CO)C(=O)c2c(c3ccccc3n2C)-c2ccccc2CO[C@@H]1CN(C)C(=O)c1cc(Cl)cc(Cl)c1`, the AC50 was 9.93 µM.
Turning to `COc1ccc(/C=N/Nc2ncccc2[N+](=O)[O-])c(OC)c1`, the AC50 is 5.79 µM.
In the case of `c1ccc(-c2nc(-c3ccccn3)no2)cc1`, the AC50 is 11.5 µM.
As for `N#C[C@H]1[C@H](c2ccc(C#CC3CCCCC3)cc2)[C@H](CO)N1C(=O)Nc1ccc(F)cc1`, the AC50 was > 20 µM (inactive).
Consider `COc1ccc(CNCCC(c2ccc(F)cc2)c2ccc(OC(C)C)cc2)cc1OC` (stereo not drawn), for which the half-maximal activity concentration (AC50) was 5.85 µM.
In the case of `C[C@@H]1O[C@@H](O[C@H]2C[C@@H](O)[C@]3(CO)C4C(CC[C@]3(O)C2)[C@@]2(O)CC[C@H](C3=CC(=O)OC3)[C@@]2(C)C[C@H]4O)[C@H](O)[C@H](O)[C@H]1O` (stereo partly drawn), the AC50 is 0.379 µM.
As for `Cc1ccc2c(=O)c3ccccc3n(CCCN)c2c1C`, the concentration at half-maximal activity (AC50) is 2.79 µM.
For `COc1ccc(C[C@H]2NC[C@H](O)[C@H]2OC(C)=O)cc1`, the AC50 was 2.75 µM.
Turning to `C[C@H]1CN([C@@H](C)CO)C(=O)c2c(c3ccccc3n2C)-c2ccccc2CO[C@@H]1CN(C)C(=O)Nc1ccccc1C(F)(F)F`, the AC50 is > 20 µM (inactive).
Then `CNC(=S)NN=C(C)CCCC(C)=NNC(=S)NC`, with 10.3 µM; and `COC(=O)c1ccc2nc(NC(=O)C(C)(C)C)sc2c1`, with 7.83 µM.
For the molecule `CC(NCC(O)COCCC12CC3CC(CC(C3)C1)C2)c1ccccc1` (stereo not drawn), the AC50 was 6.49 µM.
With `CCCC(C)Sc1nc2c([nH]1)c(=S)n(C)c(=O)n2C` (stereo not drawn), the half-maximal activity concentration (AC50) was 8.95 µM.
Then `C[C@@H]1CN([C@H](C)CO)C(=O)c2ccccc2-c2ccccc2CO[C@@H]1CN(C)C(=O)c1cc(Cl)cc(Cl)c1`, with 8.71 µM; and `c1ccc2nc(-c3nc4ccccc4o3)ccc2c1`, with > 20 µM (inactive).
In the case of `CNc1c2cccc(C)c2nc2c(C(=O)NCCN(C)C)cccc12`, the AC50 is 5.98 µM.
Turning to `Nc1cccc2nc3ccccc3cc12`, the half-maximal activity concentration (AC50) was 1.96 µM.
Take `C[C@@H]1CN([C@@H](C)CO)C(=O)c2ccccc2-c2ccccc2CO[C@@H]1CN(C)Cc1ccccc1C(F)(F)F`: the AC50 is > 20 µM (inactive).
As for `COc1ccc(CC2C(=O)NC(C)C(=O)N(C)C3C(=O)N(C)C(Cc4ccc(O)c(c4)Oc4ccc(cc4)C3O)C(=O)NC(C)C(=O)NC(C)C(=O)N2C)cc1` (stereo not drawn), the half-maximal activity concentration (AC50) is 8.5 µM.
Turning to `C[C@@H]1CCCCO[C@@H](CN(C)Cc2ccc(Cl)c(Cl)c2)[C@H](C)CN([C@H](C)CO)C(=O)c2cc(NS(=O)(=O)c3cccs3)ccc2O1`, the AC50 was 8.68 µM.
For `C[C@@H]1CN([C@@H](C)CO)C(=O)c2c(c3ccccc3n2C)-c2ccccc2CO[C@H]1CN(C)C(=O)Nc1cccc(C(F)(F)F)c1`, the AC50 was 1.4 µM.
For the molecule `C[C@@H]1CN([C@@H](C)CO)C(=O)c2c(c3ccccc3n2C)-c2ccccc2CO[C@H]1CN(C)S(=O)(=O)c1ccc([N+](=O)[O-])cc1`, the AC50 is > 20 µM (inactive).
Then `N#C[C@H]1[C@H](c2ccc(C#Cc3ccccc3F)cc2)[C@@H](CO)N1C(=O)C1CC1`, with > 20 µM (inactive); and `CC1=NNC(=O)C1Br` (stereo not drawn), with 9.62 µM; and `C[n+]1c(-c2ccccc2)cc2c(=Cc3ccc([N+](=O)[O-])cc3)c3ccccc3n21`, with 9.92 µM.
Turning to `COc1cc(/C=N/n2cnnc2)ccc1OC(=O)c1ccncc1`, the AC50 is 8.07 µM.
Take `CC(=O)O[C@H]1C[C@H](O[C@H]2[C@@H](O)C[C@H](O[C@H]3[C@@H](O)C[C@H](O[C@H]4CC[C@@]5(C)C(CCC6C5C[C@@H](O)[C@]5(C)[C@@H](C7=CC(=O)OC7)CC[C@]65O)C4)O[C@@H]3C)O[C@@H]2C)O[C@H](C)[C@H]1O[C@@H]1O[C@H](CO)[C@@H](O)[C@H](O)[C@H]1O` (stereo partly drawn): the half-maximal activity concentration (AC50) was 0.758 µM.
Then `CC(C)(C)CC(C)(C)c1ccc(O)c(Cc2ccc(Cl)cc2Cl)c1`, with 7.05 µM.
Then `Clc1ccc(COC(Cn2ccnc2)c2ccc(Cl)cc2Cl)c(Cl)c1` (stereo not drawn), with 8.13 µM; and `C[C@@H]1CC=CC[C@H](c2ccc(F)cc2)NC(=O)[C@@H](Cc2ccccc2)N(C)C(=O)c2ccccc2O1` (mixture of isomers), with > 20 µM (inactive).
For `O=C(Nc1ccccc1F)N1CCCCN2[C@H](CO)[C@H](c3ccc(/C=C/c4ccccc4)cc3)[C@H]2C1` the value was > 20 µM (inactive); for `O=C1NC2C(O)C(O)C(O)C(O)C2c2cc3c(c(O)c21)OCO3` (stereo not drawn), 9.05 µM.
For the molecule `Cc1noc(C)c1S(=O)(=O)N(C)C[C@H]1OCc2ccccc2-c2c(n(C)c3ccccc23)C(=O)N([C@@H](C)CO)C[C@H]1C`, the half-maximal activity concentration (AC50) is 10.1 µM.
With `C[C@H](CO)N1C[C@H](C)[C@H](CN(C)CC2CCCCC2)OCCCC[C@H](C)Oc2ccc(NC(=O)Nc3ccc(C(F)(F)F)cc3)cc2C1=O`, the AC50 was > 20 µM (inactive).
With `COC(=O)C[C@](O)(CCCC(C)(C)O)C(=O)O[C@@H]1C(OC)=C[C@]23CCCN2CCc2cc4c(cc2[C@H]13)OCO4`, the AC50 was > 20 µM (inactive).
Turning to `COc1ccc(C#Cc2ccc([C@H]3[C@@H](CO)N4CCCCN(S(=O)(=O)c5cn(C)cn5)C[C@H]34)cc2)cc1`, the AC50 was 10.8 µM.
For `Fc1ccccc1CNCCC(Cc1ccccc1)c1ccc2c(c1)OCO2` (stereo not drawn) the value was > 20 µM (inactive).
Turning to `COc1ccc2c3c(n(C)c2c1)[C@H](CO)N(C(C)=O)CC31CN(Cc2ccc(Cl)cc2)C1`, the AC50 is > 20 µM (inactive).
Regarding `O=C(Nc1ccc(C(F)(F)F)cc1)N1C[C@@H]2N[C@H](C1)C2c1ccc(-c2ccccc2)cc1` (stereo partly drawn), the AC50 was 8.09 µM.
With `CN1C(=O)/C(=N\OC(=O)c2cccc3ccccc23)c2ccccc21`, the AC50 was 4.04 µM.
For the molecule `CCc1cc2c(=O)c(-c3ccc4c(c3)OCCO4)coc2c(CN2CCCCC2C)c1O` (stereo not drawn), the AC50 was 8.84 µM.
As for `COc1ccc(S(=O)(=O)Nc2ccc3c(c2)C(=O)N([C@@H](C)CO)C[C@H](C)[C@H](CN(C)Cc2ccc(C(F)(F)F)cc2)OCCCC[C@H](C)O3)cc1`, the AC50 is > 20 µM (inactive).
On to `COc1cc(C(=O)CCN2CCC(c3ccccc3)C2)cc(OC)c1OC` (stereo not drawn), for which the half-maximal activity concentration (AC50) is 7.27 µM.
As for `Cc1cc(C)cc(N2C(=O)CC(Sc3nnnn3-c3ccccc3)C2=O)c1` (stereo not drawn), the half-maximal activity concentration (AC50) was 4.02 µM.
With `CC1=C(C#N)c2nc(N)c(C#N)c(C)c2/C1=C\c1ccccc1`, the AC50 was 8.93 µM.
For `C[C@H]1O[C@@H](O[C@H]2[C@@H](O)C[C@H](O[C@H]3[C@@H](O)C[C@H](O[C@H]4CC[C@]5(C)C6CC[C@]7(C)[C@@H](C8=CC(=O)OC8)CC[C@]7(O)C6CC[C@@H]5C4)O[C@@H]3C)O[C@@H]2C)C[C@H](O)[C@@H]1O` (stereo partly drawn) the value was 2.2 µM; for `C[C@@H]1CN([C@H](C)CO)C(=O)c2c(c3ccccc3n2C)-c2ccccc2CO[C@H]1CN(C)C(=O)Nc1cccc(Cl)c1Cl`, 10.1 µM.
Regarding `C[C@H](CO)N1C[C@H](C)[C@@H](CN(C)Cc2cccc(C(F)(F)F)c2)OCc2ccccc2-c2c(n(C)c3ccccc23)C1=O`, the concentration at half-maximal activity (AC50) was 6.4 µM.
For `COC(=O)C1=C(C(=O)OC)C2OC1c1cc3ccccc3cc12` the value was 2.65 µM; for `COc1ccc2c(c1)c1ncn(Cc3ccccn3)c(=O)c1n2C`, > 20 µM (inactive); for `CCSc1ccc(-c2cc(NC=O)c3ncc(-c4cccc(C(=O)N(C)C)c4)n3c2)cc1`, > 20 µM (inactive).
For `Cc1cc(C(=O)COC(=O)c2ccco2)c(C)n1Cc1ccco1` the value was > 20 µM (inactive); for `O=C(Nc1ccc([N+](=O)[O-])cc1Cl)c1cc(Cl)ccc1O`, > 7 µM (inactive).
Regarding `CCC(C)[C@H]1O[C@]2(CC[C@@H]1C)C[C@@H]1C[C@@H](C/C=C(\C)[C@@H](OC3C[C@H](OC)C(O[C@H]4C[C@H](OC)[C@@H](O)[C@H](C)O4)[C@H](C)O3)[C@@H](C)/C=C/C=C3\CO[C@@H]4[C@H](O)C(C)=C[C@@H](C(=O)O1)[C@]34O)O2` (stereo partly drawn), the AC50 was > 20 µM (inactive).
In the case of `N#C[C@H]1[C@H](c2ccc(C#Cc3ccccc3F)cc2)[C@@H](CO)N1C(=O)c1cccnc1`, the half-maximal activity concentration (AC50) is 11.2 µM.
Then `CC(C)c1ccc(NC(=O)Nc2nc(C(N)COCc3ccccc3)cs2)cc1` (stereo not drawn), with 4.21 µM.
Consider `Cn1cnc(CCNC(=O)C[C@@H]2CC[C@@H]3[C@H](COC[C@@H](O)CN3C(=O)Nc3ccc(C(F)(F)F)cc3)O2)c1`, for which the AC50 is > 20 µM (inactive).
With `CC1=CC(C)(C)N=C(Nc2nc(C)c3cc(C)cc(C)c3n2)N1`, the AC50 was 1.46 µM.
For `NC(c1csc(NC(=O)Nc2cccc(Cl)c2)n1)c1ccccc1Cl` (stereo not drawn) the value was > 20 µM (inactive); for `COc1ccccc1C(=O)Nc1ccc2c(c1)C(=O)N(C)[C@H]1CC[C@H](CC(=O)Nc3cccc(C(C)C)c3)O[C@@H]1CO2`, > 20 µM (inactive).
Regarding `Clc1ccc(CSC(Cn2ccnc2)c2ccc(Cl)cc2Cl)cc1` (stereo not drawn), the AC50 is > 20 µM (inactive).
On to `CCN(CC)CCCNc1nc2ccccc2c2[nH]c3ccc(OC)cc3c12`, for which the AC50 was 6.93 µM.
Turning to `CCCCCCCCCCCCCCCC[n+]1ccccc1`, the AC50 is 1.55 µM.
On to `COc1ccc(/C=C2/CCC(CN3CCOCC3)C2=O)cc1` (stereo not drawn), for which the concentration at half-maximal activity (AC50) was 7.4 µM.
As to `COCCn1c(C)cc(C(=O)COC(=O)c2ccc(Cl)c(S(N)(=O)=O)c2)c1C`, the AC50 is 3.01 µM.
For `C[C@@H]1CN([C@@H](C)CO)C(=O)c2ccccc2-c2ccccc2CO[C@@H]1CN(C)Cc1ccc(Oc2ccccc2)cc1` the value was 8.71 µM.
Turning to `Cc1c(C(=O)c2cccc3ccccc23)c2cccc3c2n1[C@H](CN1CCOCC1)CO3`, the AC50 was 3.44 µM.
Regarding `C[C@@H]1CN([C@@H](C)CO)C(=O)c2ccccc2-c2ccccc2CO[C@H]1CN(C)Cc1ccccc1C(F)(F)F`, the AC50 was 7.28 µM.
Take `Cc1ccc(OCCn2cnc3c(N)ncnc32)cc1`: the AC50 is > 20 µM (inactive).

In general, AC50 refers to the concentration at which the activity in the assay is half-maximal.
